In paper PMC4773911 (Journal of the American Chemical Society, 2015):
“Also recorded” adds a separate entry of the source.

Assays:
[1] = test system: human PC3 cells; test: lipid levels in human PC3 cells; type: cell-based
[2] = biological target: cannabinoid CB1 receptor (Homo sapiens, UniProt P21554); test: cannabinoid CB1 receptor radioligand displacement assay; type: binding
[3] = test system: DAGL-α; type: binding, mouse; details: 10 μM
[4] = biological target: T1, FAAH (Mus musculus, UniProt O08914); test: competitive ABPP with TAMRA-FP in mouse brain membrane proteome, FAAH labeling; type: binding
T1 sequence (O08914 1-579): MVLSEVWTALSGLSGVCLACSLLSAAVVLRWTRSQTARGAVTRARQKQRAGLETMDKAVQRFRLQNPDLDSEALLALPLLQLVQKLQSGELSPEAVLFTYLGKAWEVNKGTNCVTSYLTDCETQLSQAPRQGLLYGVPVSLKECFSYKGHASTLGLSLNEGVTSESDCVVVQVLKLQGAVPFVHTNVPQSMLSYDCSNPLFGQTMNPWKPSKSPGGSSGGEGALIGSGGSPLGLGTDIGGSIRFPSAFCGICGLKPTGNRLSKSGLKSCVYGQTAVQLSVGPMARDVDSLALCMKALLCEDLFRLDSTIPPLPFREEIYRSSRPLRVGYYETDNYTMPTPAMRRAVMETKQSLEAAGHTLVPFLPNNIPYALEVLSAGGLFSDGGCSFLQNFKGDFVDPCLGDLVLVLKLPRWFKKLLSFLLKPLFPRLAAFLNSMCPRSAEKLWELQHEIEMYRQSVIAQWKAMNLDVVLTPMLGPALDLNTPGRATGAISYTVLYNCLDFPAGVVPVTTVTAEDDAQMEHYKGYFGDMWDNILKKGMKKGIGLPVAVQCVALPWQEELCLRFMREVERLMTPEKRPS

[5] = biological target: T2, endogenous DAGL-β (Mus musculus, UniProt Q91WC9); test: competitive ABPP with MB064 in Neuro2A proteome; type: binding; details: Neuro2A proteome in vitro, n=3
T2 sequence (Q91WC9 1-669): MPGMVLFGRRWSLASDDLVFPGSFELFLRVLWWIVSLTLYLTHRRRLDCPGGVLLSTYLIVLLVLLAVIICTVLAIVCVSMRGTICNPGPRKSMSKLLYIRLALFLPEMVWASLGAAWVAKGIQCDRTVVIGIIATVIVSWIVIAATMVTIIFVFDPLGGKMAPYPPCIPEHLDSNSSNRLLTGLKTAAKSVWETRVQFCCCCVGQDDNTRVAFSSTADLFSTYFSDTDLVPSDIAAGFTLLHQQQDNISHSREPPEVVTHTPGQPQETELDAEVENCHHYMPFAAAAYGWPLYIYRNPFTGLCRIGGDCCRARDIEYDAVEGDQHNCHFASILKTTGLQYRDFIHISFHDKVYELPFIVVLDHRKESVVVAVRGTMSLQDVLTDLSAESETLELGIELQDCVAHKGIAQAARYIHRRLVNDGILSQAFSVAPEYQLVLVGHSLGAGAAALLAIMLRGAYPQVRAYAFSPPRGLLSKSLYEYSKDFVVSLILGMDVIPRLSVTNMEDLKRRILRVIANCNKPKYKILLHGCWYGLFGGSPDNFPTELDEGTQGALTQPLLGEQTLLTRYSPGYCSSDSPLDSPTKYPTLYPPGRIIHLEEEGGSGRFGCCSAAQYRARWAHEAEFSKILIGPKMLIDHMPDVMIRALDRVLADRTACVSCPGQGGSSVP

[6] = biological target: T1, FAAH; test: ABPP in Neuro2A proteome, FAAH; type: binding
[7] = test system: CA1 pyramidal neurons in hippocampal slices; test: depolarization-induced suppression of inhibition; type: cell-based, mouse; details: 10 μM
[8] = biological target: T3, DAGL-α (Homo sapiens, UniProt Q9Y4D2); test: colorimetric assay using para-nitrophenylbutyrate as a surrogate substrate; type: biochemical
T3 sequence (Q9Y4D2 1-1042): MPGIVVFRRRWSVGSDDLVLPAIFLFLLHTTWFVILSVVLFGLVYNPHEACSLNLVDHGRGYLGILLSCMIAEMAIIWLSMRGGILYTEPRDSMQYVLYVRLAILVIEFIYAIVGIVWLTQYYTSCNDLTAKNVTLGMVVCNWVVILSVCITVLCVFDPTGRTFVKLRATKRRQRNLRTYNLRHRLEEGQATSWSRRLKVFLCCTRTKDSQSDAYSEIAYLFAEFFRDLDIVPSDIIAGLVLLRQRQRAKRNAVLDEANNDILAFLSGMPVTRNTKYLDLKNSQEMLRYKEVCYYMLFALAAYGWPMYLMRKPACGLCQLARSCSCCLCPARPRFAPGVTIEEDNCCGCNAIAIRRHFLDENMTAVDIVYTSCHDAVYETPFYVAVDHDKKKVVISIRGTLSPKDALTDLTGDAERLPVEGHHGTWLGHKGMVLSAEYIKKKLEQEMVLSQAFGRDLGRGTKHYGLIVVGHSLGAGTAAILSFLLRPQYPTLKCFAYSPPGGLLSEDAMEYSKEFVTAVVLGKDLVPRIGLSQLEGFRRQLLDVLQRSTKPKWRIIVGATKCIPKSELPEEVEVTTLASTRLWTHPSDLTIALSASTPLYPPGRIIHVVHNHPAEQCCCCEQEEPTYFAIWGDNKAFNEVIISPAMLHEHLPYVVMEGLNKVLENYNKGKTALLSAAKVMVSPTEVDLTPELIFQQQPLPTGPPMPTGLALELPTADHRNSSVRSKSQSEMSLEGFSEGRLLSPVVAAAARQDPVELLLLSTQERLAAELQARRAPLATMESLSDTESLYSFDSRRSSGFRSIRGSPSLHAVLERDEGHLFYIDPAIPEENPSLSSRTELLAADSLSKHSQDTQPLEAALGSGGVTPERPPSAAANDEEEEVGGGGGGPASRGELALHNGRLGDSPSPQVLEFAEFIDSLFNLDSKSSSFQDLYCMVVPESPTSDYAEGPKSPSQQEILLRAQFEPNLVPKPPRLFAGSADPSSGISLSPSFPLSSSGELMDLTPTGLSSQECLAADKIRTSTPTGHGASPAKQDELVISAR

[9] = biological target: T3, DAGL-α; type: biochemical; details: pre-incubated at IC80 concentration; MB064 labeling; n=3
[10] = biological target: T3, DAGL-α; test: radiometric assay using 1-[14C]oleoyl-2-arachidonoyl-sn-glycerol as substrate; type: biochemical; details: 1-[14C]oleoyl-2-arachidonoyl-sn-glycerol 20 μm; n=2
[11] = biological target: T3, DAGL-α; test: real-time, fluorescence-based
[12] = test system: serine hydrolases; type: binding, mouse
[13] = test system: serine hydrolases; type: binding, mouse; details: 10 μM, 30 min
[14] = test system: ABHD6; test: ABPP in Neuro2A proteome, ABHD6; type: binding, mouse
[15] = biological target: T4, hDAGL-β (Homo sapiens, UniProt Q8NCG7); test: competitive ABPP with MB064 on membranes of hDAGL-β transfected HEK293T cells; type: binding; details: n=3
T4 sequence (Q8NCG7 1-672): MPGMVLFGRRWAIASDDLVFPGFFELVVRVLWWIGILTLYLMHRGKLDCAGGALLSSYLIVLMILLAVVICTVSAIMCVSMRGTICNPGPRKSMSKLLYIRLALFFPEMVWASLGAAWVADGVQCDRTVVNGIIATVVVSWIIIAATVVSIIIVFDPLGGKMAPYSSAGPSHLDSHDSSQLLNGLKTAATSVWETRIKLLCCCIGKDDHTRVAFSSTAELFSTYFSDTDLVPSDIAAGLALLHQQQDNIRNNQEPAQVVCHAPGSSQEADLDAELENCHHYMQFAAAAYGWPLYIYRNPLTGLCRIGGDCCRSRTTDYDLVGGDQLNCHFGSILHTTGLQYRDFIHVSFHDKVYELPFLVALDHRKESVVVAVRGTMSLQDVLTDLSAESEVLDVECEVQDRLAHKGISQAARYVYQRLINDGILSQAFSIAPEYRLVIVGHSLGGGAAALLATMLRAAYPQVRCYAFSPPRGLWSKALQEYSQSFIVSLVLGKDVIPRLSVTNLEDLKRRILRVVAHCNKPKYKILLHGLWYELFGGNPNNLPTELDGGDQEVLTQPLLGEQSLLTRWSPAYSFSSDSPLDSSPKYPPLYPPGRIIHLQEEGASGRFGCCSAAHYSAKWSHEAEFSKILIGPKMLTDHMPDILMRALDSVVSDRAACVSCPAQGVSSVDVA

[16] = test system: endogenously expressed DAGL-β; test: competitive ABPP with MB064 in mouse spleen membrane proteome; type: binding; details: 10 μM, MB064 1.0 μM
[17] = biological target: T5, recombinant human ABHD6 (Homo sapiens, UniProt Q9BV23); test: biochemical assay using recombinant human ABHD6
T5 sequence (Q9BV23 1-337): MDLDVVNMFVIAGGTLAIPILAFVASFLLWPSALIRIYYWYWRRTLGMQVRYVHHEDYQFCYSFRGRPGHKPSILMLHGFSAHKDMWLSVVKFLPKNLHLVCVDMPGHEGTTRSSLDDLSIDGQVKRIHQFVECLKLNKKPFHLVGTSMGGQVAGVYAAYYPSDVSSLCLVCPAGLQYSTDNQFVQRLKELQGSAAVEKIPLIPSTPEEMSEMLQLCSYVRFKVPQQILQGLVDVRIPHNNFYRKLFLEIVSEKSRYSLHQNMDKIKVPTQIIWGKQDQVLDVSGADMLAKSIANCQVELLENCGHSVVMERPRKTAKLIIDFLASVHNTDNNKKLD

[18] = biological target: T6, recombinant human MAGL (Homo sapiens, UniProt Q99685); test: biochemical assay using recombinant human MAGL
T6 sequence (Q99685 1-303): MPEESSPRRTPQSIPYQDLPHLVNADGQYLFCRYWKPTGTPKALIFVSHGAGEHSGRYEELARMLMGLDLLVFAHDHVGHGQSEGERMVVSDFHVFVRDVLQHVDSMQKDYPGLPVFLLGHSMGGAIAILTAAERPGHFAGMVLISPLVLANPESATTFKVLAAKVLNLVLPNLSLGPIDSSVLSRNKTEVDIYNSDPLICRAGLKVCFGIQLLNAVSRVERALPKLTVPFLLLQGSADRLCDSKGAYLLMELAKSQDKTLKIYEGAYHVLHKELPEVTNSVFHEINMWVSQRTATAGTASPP

[19] = test system: Neuro2A cells; test: targeted lipidomics after in situ treatment of Neuro2A cells; type: cell-based, mouse; details: in situ 1h, 37 °C, n=4
[20] = biological target: T4, hDAGL-β; test: biochemical assay with para-nitrophenylbutyrate as a surrogate substrate; details: n=4
[21] = test system: mouse liver; details: cited from earlier work

cannabinoid CB1 receptor, sequence (P21554 whole entry): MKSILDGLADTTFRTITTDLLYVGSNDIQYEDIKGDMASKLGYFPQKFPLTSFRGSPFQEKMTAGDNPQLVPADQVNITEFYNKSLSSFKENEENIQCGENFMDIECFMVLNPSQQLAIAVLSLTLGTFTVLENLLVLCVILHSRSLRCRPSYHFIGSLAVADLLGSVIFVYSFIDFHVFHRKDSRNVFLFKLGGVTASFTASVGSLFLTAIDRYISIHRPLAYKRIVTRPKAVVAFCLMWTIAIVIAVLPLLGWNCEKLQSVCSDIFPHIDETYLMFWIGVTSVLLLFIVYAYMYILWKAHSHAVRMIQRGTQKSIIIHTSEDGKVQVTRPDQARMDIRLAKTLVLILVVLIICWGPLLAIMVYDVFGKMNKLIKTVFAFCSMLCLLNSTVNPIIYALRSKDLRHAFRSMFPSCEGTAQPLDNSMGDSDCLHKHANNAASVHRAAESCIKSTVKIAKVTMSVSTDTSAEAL

For `Cc1ccc(-c2cnc3nc(C(=O)CCCCCc4ccccc4)oc3c2)cc1` [LEI105], the 2-AG levels [1] was “reduced”, the arachidonic acid levels [1] was “reduced” and the “substrate levels of DAGL (DAG species)” value [1] was “no change”. For the same molecule, the “displacement of 3H-CP55940 from the CB1 receptor” value ([2]; 10 μM) was “did not displace”, the “pKi on cannabinoid CB1 receptor” value ([2]; radioligand displacement) was < 5 and the “reduction of DAGL-α labeling” value [3] was “over 70%”. The “block of FAAH labeling” value ([4]; up to a concentration of 10 μM, TAMRA-FP, n=3) was “did not block FAAH labeling”, the “pIC50 of DAGL-β labeling” value [5] was 7.3 ± 0.07 and the “inhibition of FAAH” value [6] was “no inhibition”. The “DSI in hippocampal slices (in words)” value [7] was “reduced”, the “amplitude of stimulus-evoked inhibitory post-synaptic currents (IPSC)” value ([7]; pre-incubation and continuous application) was 271 ± 22 pA and the “DSI, reduction in IPSC amplitude averaged over the first 15 sec after induction” value ([7]; n=15, p<0.05 vs control) was 18 ± 7%. The “fold more potent than LEI104” value ([8]; para-nitrophenylbutyrate assay, vs LEI104) was ~10 fold, the “pIC50 on human DAGL-α” value ([8]; para-nitrophenylbutyrate surrogate substrate, n=4) was 8.5 ± 0.06 and the “recovery of DAGL-α activity after size exclusion chromatography” value [9] was “reversibility”. For the same molecule, the “pIC50, radiometric assay” value [10] was 6.6, the “fold increase compared to LEI104” value ([11]; natural substrate assay) was 40 fold and the “inhibition of labeling of other bands (TAMRA-FP and MB064)” value ([12]; 10 μM) was “did not inhibit labeling of any other band”. For the same molecule, the “reduction of labeling of the detected serine hydrolases, except DAGL-α” value [13] was ≤ 20%, the “inhibition of ABHD6” value [14] was “no inhibition” and the “pIC50 of hDAGL-β labeling by MB064” value [15] was 7.4 ± 0.07. The “inhibition of endogenous DAGL-β labeling/activity in spleen” value [16] was “could be inhibited; also recorded: can block labeling”, the “pKi on ABHD6” value [17] was < 5 and the “pKi on MAGL” value [18] was < 5. For the same molecule, the “cellular 2-AG levels” value [19] was “concentration-dependent reduction; also recorded: dose dependently decreased”, the “cellular anandamide (AEA) levels” value [19] was “unaffected; also recorded: constant” and the “pIC50 on human DAGL-β” value [20] was 8.1 ± 0.07.

For `CCCCCCCCCCC[C@@H](C[C@@H]1OC(=O)[C@H]1CCCCCC)OC(=O)[C@@H](NC=O)[C@@H](C)CC` [OMDM-188, reference compound], the “number of serine hydrolases whose labeling was blocked” value ([12]; 1 μM, including ABHD6 and ABHD12) was “at least 4”.

For `O=C(N1CCCCC1Cc1ccccc1)n1cc(-c2ccc(-c3ccccc3)cc2)nn1` (centres unmarked) [KT-109, reference compound], the “recovery of DAGL-α activity after size exclusion chromatography” value [9] is listed as “No recovery” and the arachidonic acid levels [21] is listed as “reduction”.

Work on `O=C(CCCCCc1ccccc1)c1nc2ncccc2o1` [LEI104] yielded an IC50 [4] of 15.8 nM and an IC50 [11] of 501 nM.
